For assay [1], the system named is gastric and duodenal ulcer patients. The assay can be described thus: Clinical observation of NHD on gastric and duodenal ulcer patients. Format: in vivo, human. On the procedure: 1. Case selection: Selected 80 inpatients are in accordance with gastric and duodenal ulcer diagnostic criteria. The inpatients are randomly divided into two groups. […] 2. Method of treatment: […] The course of treatment is one month. After two months, review by gastroscopy. Omeprazole is used in the control group by oral administration once every day, one piece every time (20 mg), the course of treatment is the same. 3. Observation items: ulcer surface (regarding results tested by gastroscope as standard), partial clinical symptoms (such as abdominal pain and acid reflux) 4. Curative effect evaluation standard: referring to Chinese national diagnostic curative effect standard.

The subject of another assay is Kunming mice. Put plainly: Pharmacodynamic test of the cough-relieving effect (ammonia-induced cough). Particulars: 1 hour after administering, control: codeine phosphate 4 mg/kg by gavage, test: hung. Type of assay: in vivo. The method, then: 60 kunming mice, in half respectively male and female and weighing from 18 g to 20 g, are randomly divided into 5 groups based on the weight, each group comprises 12 rice. […] suspension agent is hung in the test group. Codeine phosphate with a dosage of 4 mg/kg is administered to the control group by gavage.
For the above two groups, at 1 hour after administering, absorb 0.2 ml ammonia (with a concentration of 25%-28%) by 1 ml injector and inject the ammonia into the tampon with the same weight thereof, and then quickly put the injected tampon together with the white rice into an inverse 500 ml beaker, and then record the number of animal coughing within 3 minutes. The obvious decrease of cough frequency is regarded as the index of the antitussive effect.

The test system of assay [2] is male Prostatic hyperplasia patients. The assay can be described thus: Clinical curative effects of PHD on male Prostatic hyperplasia. Format: in vivo, human. From the text:
Case selection: 72 patients, male, wherein 53 cases with the age of 60-69 years old, 16 cases with the age of 70-79 years old, 3 cases with the age of 80-89 years old. The longest course of disease is 11 years, the shortest is 3 months. There are 6 cases with the course of disease smaller than one year, 48 cases with the course of disease in the range of 1-4 years, 14 cases with the course of disease in the range of 5-10 years, 4 cases with the course of disease bigger than 10 years. There are 12 cases with prostate enlargement I-degree, 44 cases with prostate enlargement II-degree, and 16 cases with prostate enlargement III-degree. There are 4 cases integrated with bladder stones, and 6 cases with urinary infection.
Observation method: based on the ages of patients, course of disease and state of illness, patients are divided into two groups.
(1) The control group comprises 36 patients, administered with finasteride tablet, one every time, one time every day, oral administration.
(2) The treatment group comprises 36 patients, administered with PHD, four hours every time, one time every day, hanging.
Observe patients' symptoms before and after administration which mainly includes frequent urination at night, difficult urinating, urination becoming thinner, drop after urination, micturition pain, and urgent urination. No, light, medium, heavy symptoms are scored 0, 1, 2, 3 respectively. Observe integral changes before and after treatment. Rectal touch and B ultra examination are made to observe the recovery condition of prostate enlargement.
Based on the ratio of the integral difference of local symptom before administration to that after administration and the condition of prostate recovery, curative effects are evaluated. If healing, the integral ratio is 1, and prostate enlargement is back to normal. […] If effective, the integral ratio is in the range of ⅔ to ⅓, and prostate enlargement is improved. If invalid, the integral ration is smaller than ⅓, and prostate enlargement has no change.

A further assay has as its system hyperuricemia mice. Put plainly: Pharmacodynamic test of hyperuricemia. Format: in vivo. The method, then: Kunming male mice, weighing 24±2 g, are randomly divided into several groups, use i, g, once every day for 4 days, wherein the dosages administered to the saline group and the hyperuricemia model blank group are […] every day. IP potassium oxide hydrochloride for every hyperuricemia model blank group at 2 hours before blood sampling, and IP potassium oxide hydrochloride for test model group at 1 hour before the last using. At 2 hours after the last using, sample blood from the venous plexus behind the animal orbit to test the serum uric acid level.

For a further assay, the system named is patients with diabetes. The assay can be described thus: Clinical curative effect of DHD on diabetes (diabetes kidney disease patients). Also on record: Blood glucose at 2 hours after the meal / Fasting blood glucose (FBG): unit not given here. Format: in vivo, human. From the text:
1. The standard of selecting patients: All patients with diabetes are in accordance with WHO diabetes diagnostic criteria. Select 18 cases of urine protein, renal function and two groups with the matching developing speeds of renal function injury within one year from diabetes kidney disease patients (DN). […] Once patients are selected, other drugs related to sugar, fat metabolism are stopped administering, diet control and proper exercise therapy are continued. Test fasting blood glucose and blood glucose at 2 hours after the meal every week. After stabilizing the blood glucose, experimental treatment is performed, the treatment group uses DHD, once every day, four hours every time. […] 3. Results: By statistic treatment, clinical curative effects between the two groups are tested by Ridit, and observation indexes between the two groups and within every group before and after treatment are tested by t-test. Marked: […] Effective: […]

Where [3] appears, read: of healed cases (14 NHD, 6 Omeprazole), time unit not given.
Where [4] appears, read: treat group 50 cases NHD, control group 30 cases Omeprazole 20 mg oral.
The mark [5] stands for this setting: 36 cases per group, PHD versus finasteride tablet.
Where [6] appears, read: 12 weeks, DHD versus Gliquidone.

Molecules are shown by their SMILES.

For the molecule `COc1ccc2[nH]c([S+]([O-])Cc3ncc(C)c(OC)c3C)nc2c1` (centres unmarked) [Omeprazole], in assay [1] (setting [3]), the “needed time for curing diseases: cases healed at course of treatment 6” value turned out to be 0, the “needed time for curing diseases: cases healed at course of treatment 7” value is reported as 0, the “needed time for curing diseases: cases healed at course of treatment 8” value is on record as 2 and the “needed time for curing diseases: cases healed at course of treatment 9” value was determined as 4. In assay [1] (treat group 50 cases NHD hung 5 hours/day, control group 30 cases Omeprazole 20 mg oral once daily), the “Healing (cases)” value is recorded as 6. In assay [1] (setting [4]), the “Invalid effect (cases)” value worked out at 5, the “Marked effect (cases)” value turned out to be 6, the “Total efficient rate (%)” value is 83.3% and the “Turning better (cases)” value was 13.
Usually inhibition stands for how much of the control response was suppressed. For `COc1ccc2c3c1O[C@H]1[C@@H](O)C=C[C@H]4[C@@H](C2)N(C)CC[C@@]341` [Codeine phosphate], the inhibition at 4 mg/kg in the assay with Kunming mice (Mus musculus, po, read-out: Cough inhibition Rate (%)) is 67.3%. Besides, the “Cough Frequency” value in the assay on Kunming mice (number of coughing within 3 minutes) was 11.2 ± 4.8.
As for `CC(C)(C)NC(=O)[C@H]1CC[C@H]2[C@@H]3CC[C@H]4NC(=O)C=C[C@]4(C)[C@H]3CC[C@]12C` [finasteride tablet, finasteride], in assay [2] (setting [5]), the “Effective (cases)” value is recorded as 6, the “Invalid (cases)” value turned out to be 16, the “Marked (cases)” value is 10 and the Total efficient rate came out at 52.78%. Moreover, the total effective cases in assay [2] (setting [5]) turned out to be 26 cases. In assay [2] (36 cases per group, treatment PHD hung four hours daily, control finasteride tablet oral once daily), the “Healing (cases)” value is listed as 4. The “Integral values of local symptoms before and after administration” value in assay [2] (in words, control P>0.05, treatment P<0.001) is given as “significant differences”.
Take `Oc1ncnc2[nH]ncc12` [Allopurinol]: in the assay on hyperuricemia mice (hyperuricemia mice, 2 hours after the last using, 4 days, Allopurinol dosage 10), the “Serum uric acid level of mice (mg/100 ml)” value is listed as 7.46 ± 0.17 mg/100 ml. The “effect on serum uric acid level of normal mice” value in the assay with hyperuricemia mice (normal mice, in words) is recorded as “can reduce the serum uric acid level of normal mice”.
Turning to `COc1ccc2c(c1)C(=O)N(CCc1ccc(S(=O)(=O)NC(=O)NC3CCCCC3)cc1)C(=O)C2(C)C` [Gliquidone], in the assay with patients with diabetes (setting [6]), the “Blood glucose at 2 hours after the meal: Effective (cases)” value is 6, the “Blood glucose at 2 hours after the meal: Invalid (cases)” value stood at 0, the “Blood glucose at 2 hours after the meal: Marked (cases)” value was 4 and the “Blood glucose at 2 hours after the meal: Total efficient rate” value stood at 100.0. In addition, in the assay with patients with diabetes (setting [6]), the “Fasting blood glucose (FBG): Effective (cases)” value came out at 6, the “Fasting blood glucose (FBG): Invalid (cases)” value amounted to 1 and the “Fasting blood glucose (FBG): Total efficient rate” value turned out to be 90.0. For the same molecule, the “Fasting blood glucose (FBG): Marked (cases)” value with patients with diabetes (12 weeks, treatment group DHD four hours/day, control group Gliquidone 30 mg increased to 90 mg) is reported as 3. Moreover, in the assay on patients with diabetes (After treating 2 weeks), the “Blood glucose at 2 hours after the meal” value turned out to be 17.48 and the “Fasting blood glucose (FBG)” value worked out at 9.99. Besides, in the assay on patients with diabetes (After treating 4 weeks), the “Blood glucose at 2 hours after the meal” value was found to be 12.77 and the “Fasting blood glucose (FBG)” value is on record as 9.27. In the assay with patients with diabetes (After treating 8 weeks), the “Blood glucose at 2 hours after the meal” value is 10.07 and the “Fasting blood glucose (FBG)” value worked out at 8.43. Besides, in the assay with patients with diabetes (After treating (12 weeks)), the “BUN” value stood at 9.2 ± 0.6 mmol/L, the “Blood glucose at 2 hours after the meal” value was 9.21, the “Fasting blood glucose (FBG)” value is 7.62 and the “Scr” value came to 250.9 ± 49.3 µmol/L. The same molecule had a Urine protein in the assay on patients with diabetes (After treating (12 weeks)) of 6.0 ± 2.7. Further, in the assay with patients with diabetes (Before treating), the “BUN” value was 9.5 ± 0.7 mmol/L, the “Blood glucose at 2 hours after the meal” value turned out to be 14.79, the “Fasting blood glucose (FBG)” value was 10.72 and the “Scr” value is 251.3 ± 54.6 µmol/L. This molecule also returned a Urine protein with patients with diabetes (Before treating) of 6.2 ± 2.5.

The record behind these values is patent US20120171396A1, “Drug suspension agent and method of manufacture thereof” (Beijing Zhongwei Shennong Chronic Desease Medicine Academe …, priority 2009, published 2012).
